Results: patent US11046699B2, “Pyrazolo-pyrimidin-amino-cycloalkyl compounds and their therapeutic uses” (RAPT THERAPEUTICS, INC., priority 2018, dated 2021)

These molecules were tested against GCN2 (Homo sapiens, UniProt Q9P2K8) (assay: GCN2 enzymatic endpoint assay: phosphorylation of GFP-eIF2α measured by TR-FRET (Lanthascreen)). Conditions: GCN2 biochemical IC50; 4 nM GCN2, 2 μM ATP, 80 nM GFP-eIF2α, 90 min RT; read-out: GCN2 activity.
Format: biochemical
In short: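 Kinase activity is measured as phosphorylation of GFP-labelled eIF2α (80 nM) with ATP at 2 μM. Incubation runs 90 minutes at room temperature before EDTA quench and terbium-antibody detection.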

GCN2, sequence (Q9P2K8 whole entry): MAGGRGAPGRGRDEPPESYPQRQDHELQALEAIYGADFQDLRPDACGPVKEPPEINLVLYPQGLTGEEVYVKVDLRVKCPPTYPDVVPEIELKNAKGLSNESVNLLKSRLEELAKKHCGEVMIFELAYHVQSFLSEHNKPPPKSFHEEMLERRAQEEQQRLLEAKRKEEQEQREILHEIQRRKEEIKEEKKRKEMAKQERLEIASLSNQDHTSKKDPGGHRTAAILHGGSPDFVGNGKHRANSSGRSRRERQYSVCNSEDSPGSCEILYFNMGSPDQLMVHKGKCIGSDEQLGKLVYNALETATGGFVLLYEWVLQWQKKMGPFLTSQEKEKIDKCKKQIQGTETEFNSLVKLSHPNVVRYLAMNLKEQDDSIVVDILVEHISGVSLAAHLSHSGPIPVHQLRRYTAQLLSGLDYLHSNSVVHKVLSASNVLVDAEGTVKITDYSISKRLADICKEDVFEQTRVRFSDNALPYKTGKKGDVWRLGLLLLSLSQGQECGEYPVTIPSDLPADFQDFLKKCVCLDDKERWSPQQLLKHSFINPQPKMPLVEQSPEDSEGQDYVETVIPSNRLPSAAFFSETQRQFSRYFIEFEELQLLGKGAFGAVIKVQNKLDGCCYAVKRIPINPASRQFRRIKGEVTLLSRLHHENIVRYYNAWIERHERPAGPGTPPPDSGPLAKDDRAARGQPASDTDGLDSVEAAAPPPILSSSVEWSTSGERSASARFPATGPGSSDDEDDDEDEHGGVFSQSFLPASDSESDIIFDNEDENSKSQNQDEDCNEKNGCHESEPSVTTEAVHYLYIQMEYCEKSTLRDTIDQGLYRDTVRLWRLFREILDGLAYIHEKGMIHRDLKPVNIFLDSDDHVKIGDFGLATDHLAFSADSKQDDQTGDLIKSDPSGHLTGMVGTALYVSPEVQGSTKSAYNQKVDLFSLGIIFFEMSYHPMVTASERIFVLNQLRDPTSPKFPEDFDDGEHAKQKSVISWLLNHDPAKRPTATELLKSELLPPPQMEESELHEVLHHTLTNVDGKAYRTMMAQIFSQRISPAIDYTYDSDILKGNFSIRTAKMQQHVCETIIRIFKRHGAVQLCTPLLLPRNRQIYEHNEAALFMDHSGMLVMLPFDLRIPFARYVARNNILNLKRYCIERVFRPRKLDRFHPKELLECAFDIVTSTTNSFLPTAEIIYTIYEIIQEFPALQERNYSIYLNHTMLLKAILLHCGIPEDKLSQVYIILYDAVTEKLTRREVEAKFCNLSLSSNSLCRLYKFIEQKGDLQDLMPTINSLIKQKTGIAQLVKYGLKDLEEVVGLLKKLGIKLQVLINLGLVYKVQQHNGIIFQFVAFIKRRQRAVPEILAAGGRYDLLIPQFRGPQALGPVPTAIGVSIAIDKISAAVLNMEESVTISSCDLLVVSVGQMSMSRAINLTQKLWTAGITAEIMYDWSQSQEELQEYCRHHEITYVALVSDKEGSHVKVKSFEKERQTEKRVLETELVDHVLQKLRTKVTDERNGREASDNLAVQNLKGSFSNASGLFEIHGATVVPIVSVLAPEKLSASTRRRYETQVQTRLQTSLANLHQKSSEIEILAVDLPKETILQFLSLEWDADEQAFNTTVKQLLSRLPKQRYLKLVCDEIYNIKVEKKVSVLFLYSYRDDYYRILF

Structure (SMILES)	IC50
COCCNC(=O)[C@@H]1CCC[C@@H](Nc2ncc3c(Br)nn(-c4ccc5ncccc5c4)c3n2)C1 [Example 20, (1R,3R)-3-((3-bromo-1-(quinolin-6-yl)-1H-pyrazolo[3,4-d]pyrimidin-6-yl)amino)-N-(2-methoxyethyl)cyclohexane-1-carboxamide]	500 to 1000 nM
CNC(=O)[C@]1(C)CC[C@@H](Nc2ncc3c(Br)nn(-c4ccc(-c5nnc(C)s5)c(C#N)c4)c3n2)C1 [Example 69, (1R,3R)-3-((3-bromo-1-(3-cyano-4-(5-methyl-1,3,4-thiadiazol-2-yl)phenyl)-1H-pyrazolo[3,4-d]pyrimidin-6-yl)amino)-N,1-dimethylcyclopentane-1-carboxamide]	< 25 nM
CNC(=O)[C@]1(C)CC[C@@H](Nc2ncc3c(Br)nn(-c4cc(CNS(C)(=O)=O)c5ncccc5c4)c3n2)C1 [Example 33, (1R,3R)-3-((3-bromo-1-(8-(methylsulfonamidomethyl)quinolin-6-yl)-1H-pyrazolo[3,4-d]pyrimidin-6-yl)amino)-N,1-dimethylcyclopentane-1-carboxamide; 2,2,2-trifluoroacetic acid]	< 25 nM
CNC(=O)[C@]1(C)CC[C@@H](Nc2ncc3c(Br)nn(-c4ccc(-c5ncco5)c(CCN(C)C)c4)c3n2)C1 [Example 62, (1R,3R)-3-((3-bromo-1-(3-(2-(dimethylamino)ethyl)-4-(oxazol-2-yl)phenyl)-1H-pyrazolo[3,4-d]pyrimidin-6-yl)amino)-N,1-dimethylcyclopentane-1-carboxamide; 2,2,2-trifluoroacetic acid]	25 to 200 nM

Same assay, conditions: tested as described in Example 77; compound and/or hydrochloride, dihydrochloride or trifluoroacetic acid salt; read-out: IC 50 Activity

Structure (SMILES)	IC50
CNC(=O)[C@]1(C(F)(F)F)CC[C@@H](Nc2ncc3c(Br)nn(-c4cc(F)c5ncccc5c4)c3n2)C1 [(1S,3R)-3-[[3-bromo-1-(8-fluoro-6-quinolyl)pyrazolo[3,4-d]pyrimidin-6-yl]amino]-N-methyl-1-(trifluoromethyl)cyclopentane-carboxamide]	25 to 200 nM
O=C([C@@H]1CC[C@@H](Nc2ncc3c(Br)nn(-c4ccc5ncccc5c4)c3n2)C1)N1CC2CCC(C1)O2 [(8-oxa-3-azabicyclo[3.2.1]octan-3-yl)((1R,3R)-3-((3-bromo-1-(quinolin-6-yl)-1H-pyrazolo [3,4-d]pyrimidin-6-yl)amino)cyclopentyl) methanone]	25 to 200 nM
CNC(=O)[C@]1(C)CC[C@@H](Nc2ncc3c(Br)nn(-c4ccc5c(c4)NC(=O)COC5)c3n2)C1 [(1R,3R)-3-[[3-bromo-1-(2-oxo-1,5-dihydro-4,1-benzoxazepin-8-yl)pyrazolo[3,4-d]pyrimidin-6-yl]amino]-N,1-dimethyl-cyclopentanecarboxamide]	25 to 200 nM
Cn1cccc(NC(=O)[C@@H]2CC[C@@H](Nc3ncc4c(Br)nn(-c5cc(F)c6ncccc6c5)c4n3)C2)c1=O [(1R,3R)-3-[[3-bromo-1-(8-fluoro-6-quinolyl)pyrazolo[3,4-d]pyrimidin-6-yl]amino]-N-(1-methyl-2-oxo-3-pyridyl)cyclopentane-carboxamide]	25 to 200 nM
CNC(=O)[C@]1(C)CCC(Nc2ncc3c(Br)nn(-c4cnc(-c5nnc(C)s5)c(F)c4)c3n2)C1 (stereo partly drawn) [(1R)-3-[[3-bromo-1-[5-fluoro-6-(5-methyl-1,3,4-thiadiazol-2-yl)-3-pyridyl]pyrazolo [3,4-d]pyrimidin-6-yl]amino]-N,1-dimethyl-cyclopentanecarboxamide]	25 to 200 nM
CNC(=O)[C@]1(C)CC[C@@H](Nc2ncc3c(Br)nn(-c4cc(CN)c5nccnc5c4)c3n2)C1 [(1R,3R)-3-[[1-[8-(aminomethyl)quinoxalin-6-yl]-3-bromo-pyrazolo[3,4-d]pyrimidin-6-yl]amino]-N,1-dimethyl-cyclopentane-carboxamide]	25 to 200 nM
Cc1nnc(-c2ccc(-n3nc(Br)c4cnc(N[C@@H]5CC[C@](C(=O)N6CCNCC6)(C(C)C)C5)nc43)cc2CCC#N)s1 [3-[5-[3-bromo-6-[[(1R,3R)-3-isopropyl-3-(piperazine-1-carbonyl)cyclopentyl]amino]pyrazolo[3,4-d]pyrimidin-1-yl]-2-(5-methyl-1,3,4-thiadiazol-2-yl)phenyl] propanenitrile]	< 25 nM
CNC(=O)[C@]1(C)CC[C@@H](Nc2ncc3c(Br)nn(-c4cc(Cl)cc(C5CNC(=O)CO5)c4)c3n2)C1 (stereo partly drawn) [(1R,3R)-3-[[3-bromo-1-[3-chloro-5-(5-oxomorpholin-2-yl)phenyl]pyrazolo [3,4-d]pyrimidin-6-yl]amino]-N,1-dimethyl-cyclopentanecarboxamide]	25 to 200 nM
CNC(=O)[C@]1(C)CC[C@@H](Nc2ncc3c(Br)nn(-c4cccc(NC5COC5)c4)c3n2)C1 [(1R,3R)-3-[[3-bromo-1-[3-(oxetan-3-ylamino)phenyl]pyrazolo[3,4-d]pyrimidin-6-yl]amino]-N,1-dimethyl-cyclopentanecarboxamide]	25 to 200 nM
CNC(=O)C1(C)CC[C@@H](Nc2ncc3c(Br)nn(-c4ccc5nc(OC)ccc5c4)c3n2)C1 (stereo partly drawn) [(3R)-3-((3-bromo-1-(2-methoxyquinolin-6-yl)-1H-pyrazolo[3,4-d]pyrimidin-6-yl)amino)-N,1-dimethylcyclopentane-1-carboxamide]	25 to 200 nM
CNC(=O)C1(C)CC[C@@H](Nc2ncc3c(Br)nn(-c4cc(C#N)c5nccc(C)c5c4)c3n2)C1 (stereo partly drawn) [(3R)-3-[[3-bromo-1-(8-cyano-4-methyl-6-quinolyl)pyrazolo[3,4-d]pyrimidin-6-yl]amino]-N,1-dimethyl-cyclopentane-carboxamide]	< 25 nM
CNC(=O)[C@]1(CC(F)F)CC[C@@H](Nc2ncc3c(Br)nn(-c4ccc5ncncc5c4)c3n2)C1 [(1R,3R)-3-[(3-bromo-1-quinazolin-6-yl-pyrazolo[3,4-d]pyrimidin-6-yl)amino]-1-(2,2-difluoroethyl)-N-methyl-cyclopentanecarboxamide]	25 to 200 nM
COCCNC(=O)[C@@H]1CC[C@@H](Nc2ncc3c(Br)nn(-c4cnc5ccc(F)cc5c4)c3n2)C1 [(1R,3R)-3-((3-bromo-1-(6-fluoroquinolin-3-yl)-1H-pyrazolo[3,4-d]pyrimidin-6-yl)amino)-N-(2-methoxyethyl)cyclopentane-1-carboxamide]	500 to 1000 nM
CNC(=O)[C@]1(CC(F)F)CC[C@@H](Nc2ncc3c(Br)nn(-c4ccc(-c5cccnc5)c(C#N)c4)c3n2)C1 [(1R,3R)-3-[[3-bromo-1-[3-cyano-4-(3-pyridyl)phenyl]pyrazolo[3,4-d]pyrimidin-6-yl]amino]-1-(2,2-difluoroethyl)-N-methyl-cyclopentanecarboxamide]	25 to 200 nM
O=C([C@@H]1CC[C@@H](Nc2ncc3c(Br)nn(-c4cc(F)c5ncccc5c4)c3n2)C1)N1CCS(=O)(=O)CC1 [((1R,3R)-3-((3-bromo-1-(8-fluoroquinolin-6-yl)-1H-pyrazolo[3,4-d]pyrimidin-6-yl)amino)cyclopentyl)(1,1-dioxidothio-morpholino)methanone]	25 to 200 nM
COCCNC(=O)[C@@H]1CC[C@@H](Nc2ncc3c(Br)nn(-c4ccc5cnn(C)c5c4)c3n2)C1 [(1R,3R)-3-((3-bromo-1-(1-methyl-1H-indazol-6-yl)-1H-pyrazolo[3,4-d]pyrimidin-6-yl)amino)-N-(2-methoxyethyl)cyclopentane-1-carboxamide]	200 to 500 nM
CC(C)(O)CNC(=O)[C@@H]1CC[C@@H](Nc2ncc3c(Br)nn(-c4cc(F)c5ncccc5c4)c3n2)C1	25 to 200 nM
CNC(=O)[C@]1(C)CC[C@@H](Nc2ncc3c(Br)nn(-c4ccc(-c5nnc(C(F)F)o5)cc4)c3n2)C1 [(1R,3R)-3-[[3-bromo-1-[4-[5-(difluoro-methyl)-1,3,4-oxadiazol-2-yl]phenyl]pyrazolo[3,4-d]pyrimidin-6-yl]amino]-N,1-dimethyl-cyclopentanecarboxamide]	25 to 200 nM
Cc1nnc(-c2ccc(-n3nc(Br)c4cnc(NC5CCN(CC(F)F)C5)nc43)cc2)s1 (centres unmarked) [3-bromo-N-[1-(2,2-difluoroethyl)pyrrolidin-3-yl]-1-[4-(5-methyl-1,3,4-thiadiazol-2-yl)phenyl] pyrazolo[3,4-d]pyrimidin-6-amine]	25 to 200 nM
O=C(N[C@@H]1CCOC1)[C@@H]1CC[C@@H](Nc2ncc3c(Br)nn(-c4cc(F)c5ncccc5c4)c3n2)C1 [(1R,3R)-3-((3-bromo-1-(8-fluoroquinolin-6-yl)-1H-pyrazolo[3,4-d]pyrimidin-6-yl)amino)-N-((R)-tetrahydrofuran-3-yl)cyclopentane-1-carboxamide]	< 25 nM
N#Cc1cc(-n2nc(Br)c3cnc(N[C@@H]4CC[C@H](C(=O)NCC5(F)CNC5)C4)nc32)cc2cccnc12 [(1S,3R)-3-((3-bromo-1-(8-cyanoquinolin-6-yl)-1H-pyrazolo[3,4-d]pyrimidin-6-yl)amino)-N-((3-fluoroazetidin-3-yl)methyl)cyclo-pentane-1-carboxamide]	25 to 200 nM
CNC(=O)[C@]1(CC(F)F)CC[C@@H](Nc2ncc3c(Br)nn(-c4ccc(-c5cnccn5)cc4)c3n2)C1 [(1R,3R)-3-[[3-bromo-1-(4-pyrazin-2-ylphenyl)pyrazolo[3,4-d]pyrimidin-6-yl]amino]-1-(2,2-difluoroethyl)-N-methyl-cyclopentanecarboxamide]	25 to 200 nM
COCCNC(=O)[C@]1(C)CC[C@@H](Nc2ncc3c(Br)nn(-c4ccc(-c5nnc(C)s5)cc4)c3n2)C1 [(1R,3R)-3-[[3-bromo-1-[4-(5-methyl-1,3,4-thiadiazol-2-yl)phenyl]pyrazolo [3,4-d]pyrimidin-6-yl]amino]-N-(2-methoxyethyl)-1-methyl-cyclopentane-carboxamide]	25 to 200 nM
CNC(=O)[C@]1(C)CC[C@@H](Nc2ncc3c(Br)nn(-c4ccc(-c5nnc(C)s5)c(OCC5CNC5)c4)c3n2)C1 [(1R,3R)-3-[[1-[3-(azetidin-3-ylmethoxy)-4-(5-methyl-1,3,4-thiadiazol-2-yl)phenyl]-3-bromo-pyrazolo[3,4-d]pyrimidin-6-yl]amino]-N,1-dimethyl-cyclopentane-carboxamide]	25 to 200 nM
CNC(=O)[C@]1(C)CC[C@@H](Nc2ncc3c(Br)nn(-c4cc(Cl)cc(C(C)O)c4)c3n2)C1 (some centres unmarked)	< 25 nM
